The structures appear in SMILES notation. pIC50: −log10 of the molar value. Like-named read-outs stand apart in the source and are kept apart here. Marks after values point to notes of the source that are not given here.

Data set [1] has as its system [^3H]dopamine uptake into rat brain synaptosomes. The experiment in a line: [^3H]dopamine uptake by rat brain synaptosomes. It counts as biochemical. To be noted: for inhibition of [^3H]dopamine uptake: at 45 nM. As for the experimental part:
(§1) [^3H]dopamine and [^3H]noradrenaline uptake assays were carried out in synaptosomes from rat brain cortex. After a 10 minutes pre-incubation period at 37° C., [^3H]dopamine or [^3H]noradrenaline were added to the tubes containing synaptosomes and tested drugs. The reactions were stopped after four minutes by rapid cooling on ice. Specific uptake was defined as the difference between total uptake at 37° C. (triplicate samples) and the uptake measured at 0° C. (duplicate samples). Three separate experiments were performed.

The subject of data set [2] is [^3H]noradrenaline uptake into rat brain synaptosomes. The experiment in a line: [^3H]noradrenaline uptake by rat brain synaptosomes. It counts as biochemical. To be noted: for inhibition of [^3H]noradrenaline uptake: at 8.5 nM. Here is the method:
as §1

Data set [3] deals with mice. The experiment in a line: Tail bleeding time in chronically treated mice. Type of data set: in vivo. The note with it: for Mean (n = 4) of mean bleeding time: mean over experiments (different doses). As for the experimental part: The anti-thrombotic effects of a drug can be evaluated in mice through a bleeding time experiment. Mice were treated by the tested drugs for two weeks, then anesthetized and placed on a warming pad before a segment of their tail was amputated. The tail was immersed in 0.9% isotonic saline at 37° C., and the time required for the stream of blood to stop was defined as the bleeding time. Different cuts and drug doses were tested. Control mice were administered either DDW (p.o) or saline (i.p). In some experiments (Nos. 5 and 6), half of the mice were administered DDW and half saline.

Data set [4] deals with mice. The experiment in a line: Collagen-epinephrine induced acute pulmonary thromboembolism in mice. To be noted: for death or paralysis after collagen-epinephrine injection versus control group: chronic treatment: aspirin 70 mg/kg, citalopram 10 mg/kg, NMC 10 mg/kg; for Number of mice who died: died or paralyzed after collagen-epinephrine into tail vein; for % death: died or paralyzed; for Mean % death ± S.E.M: mean of 3 experiments. Type of data set: in vivo. Here is the method:
An experimental model of acute pulmonary thromboembolism was induced in mice by injecting a mixture of collagen (0.5 mg/kg) and epinephrine (0.5 mg/kg). […] The injection was followed by a massive activation of circulating platelets and the widespread formation of platelet thrombi in the microcirculation of the lungs leading to disseminated pulmonary microembolism and paralysis of the animal.

For data set [5] the following is noted: reported in reference [1]; cited from earlier work.
Setting [6] is: 3 mm tail amputation, Experiment No. 3, CJ57/black, 2 mg/kg p.o., two weeks.
Setting [7] is: 3 mm tail amputation, Experiment No. 5, ICR, 10 mg/kg i.p., two weeks.
Setting [8] is: Experiment No. 1, 10 mg/kg for two weeks.
[9] abbreviates: Experiment No. 2, 10 mg/kg for two weeks.
The mark [10] stands for this setting: Experiment No. 3, 10 mg/kg for two weeks.
Setting [11] is: 10 mg/kg for two weeks (control 72 ± 2).
Where [12] appears, read: Experiment No. 1, 70 mg/kg for two weeks.
Where [13] appears, read: Experiment No. 2, 70 mg/kg for two weeks.
Setting [14] is: Experiment No. 3, 70 mg/kg for two weeks.

Turning to `C[N+](C)(C)CCCC1(c2ccc(F)cc2)OCc2cc(C#N)ccc21` (stereo not shown) [NMC, N-methyl-citalopram], in data set [1], the “inhibition of [^3H]dopamine uptake” value was “less than 10%”. Also, the “inhibition of [^3H]noradrenaline uptake” value in data set [2] is reported as “less than 20%”. In addition, in the data set with mice [3] (setting [6]), the “Mean bleeding time” value was determined as 150 s. Also, in the data set with mice [3] (setting [7]), the “Mean bleeding time” value turned out to be 124 s. The “Mean (n = 4) of mean bleeding time” value in the data set on mice [3] (3 mm tail amputation) worked out at 191 s. In the data set on mice [4], the “death or paralysis after collagen-epinephrine injection versus control group” value is given as “significant decrease in death or paralysis”. In the data set with mice [4] (setting [8]), the “Number of mice who died” value is on record as 6/8 and the “% death” value worked out at 75%. Besides, in the data set with mice [4] (setting [9]), the “Number of mice who died” value was 4/13 and the “% death” value was found to be 31%. In the data set with mice [4] (setting [10]), the “Number of mice who died” value is on record as 6/14 and the “% death” value is reported as 43%. Besides, the “Mean % death ± S.E.M” value with mice [4] (setting [11]) is 50^b ± 10%. For the same molecule, the “dose at which not lethal to mice” value in the data set on ICR mice (i.p., mice) is on record as “less than 50 mg/kg”. Moreover, in the data set with ICR mice (mouse, in vivo, ip), the “Mice behavior following injections, day 1” value is “normal”; the “Mice behavior following injections, day 2” value is “normal”; the “Mice behavior following injections, day 3” value is reported as “normal”; the “doses that can be toxic” value was “above 50 mg/kg”.
For the molecule `CC(=O)Oc1ccccc1C(=O)O` [Aspirin], the “Mean bleeding time” value was 389 s in the data set with mice [3] (3 mm tail amputation, Experiment No. 2, CJ57/black, 40 mg/kg p.o., two weeks); 230 s with mice [3] (3 mm tail amputation, Experiment No. 3, CJ57/black, 40 mg/kg p.o., two weeks); 394 s in the data set with mice [3] (3 mm tail amputation, Experiment No. 4, CJ57/black, 70 mg/kg p.o., two weeks); 145 s in the data set with mice [3] (3 mm tail amputation, Experiment No. 5, ICR, 70 mg/kg p.o., two weeks); 221 s in the data set on mice [3] (4 mm tail amputation, Experiment No. 6, ICR, 40 mg/kg p.o.); 233 s with mice [3] (amputation where tail diameter is 2 mm, Experiment No. 1, CJ57/black, 40 mg/kg p.o.). For the same molecule, the “Mean (n = 4) of mean bleeding time” value with mice [3] (3 mm tail amputation) worked out at 288 s. The “death or paralysis after collagen-epinephrine injection versus control group” value in the data set on mice [4] is listed as “significantly less prone to die or to be paralyzed”. Further, the “Number of mice who died” value is 5/10 in the data set on mice [4] (setting [12]), 5/12 with mice [4] (setting [13]) and 3/11 in the data set on mice [4] (setting [14]). The entries for the “% death” value in the data set with mice [4] (setting [12]), with mice [4] (setting [13]) and in the data set on mice [4] (setting [14]) were 50%, 42% and 27%, respectively. Also, in the data set on mice [4] (70 mg/kg for two weeks (control 72 ± 2)), the “Mean % death ± S.E.M” value is recorded as 40^a ± 7^ %. Further, the “reduction of MI risk” value in data set [5] is recorded as 20%.
For `OC1(c2ccc(Cl)cc2)c2ccccc2C2=NCCN21` (stereo not shown) [mazindol], the pIC50 in data set [1] (rat brain synaptosomes, read-out: concentration inhibiting [^3H]dopamine uptake by 50%) was 7.35; in data set [2] (rat brain synaptosomes, read-out: concentration inhibiting [^3H]noradrenaline uptake by 50%) it was 8.07.
For the molecule `COC(=O)[C@H](c1ccccc1Cl)N1CCc2sccc2C1` [clopidogrel], in data set [5], the “reduction of MI risk” value was 10%.
For `CN(C)CCCC1(c2ccc(F)cc2)OCc2cc(C#N)ccc21` (stereo not shown) [Citalopram, 1-(3-Dimethylamino-propyl)-1-(4-fluoro-phenyl)-1,3-dihydro-isobenzofuran-5-carbonitrile], the “inhibition of [^3H]dopamine uptake” value in data set [1] was “did not inhibit”. In addition, the “inhibition of [^3H]noradrenaline uptake” value in data set [2] was “did not have any effect”. Further, the “Mean bleeding time” value with mice [3] (setting [6]) was 179 s; with mice [3] (setting [7]), 66 s. For the same molecule, the “Mean (n = 4) of mean bleeding time” value in the data set on mice [3] (3 mm tail amputation) turned out to be 171 s. The “death or paralysis after collagen-epinephrine injection versus control group” value with mice [4] is “did not cause a significant improvement”. Further, the entries for the “Number of mice who died” value with mice [4] (setting [8]), in the data set with mice [4] (setting [9]) and in the data set on mice [4] (setting [10]) were 7/9, 8/13 and 7/10, respectively. Moreover, the “% death” value with mice [4] (setting [8]) came out at 78%; in the data set with mice [4] (setting [9]), 61%; in the data set on mice [4] (setting [10]) it was 70%. The “Mean % death ± S.E.M” value with mice [4] (setting [11]) is 70 ± 5%. The “Mice behavior following injections, day 1” value in the data set on ICR mice (30 mg/day i.p., ICR mice, observed 1 hour) was “normal”. Besides, the “Mice behavior following injections, day 3” value in the data set with ICR mice (100 mg/day i.p., ICR mice, observed 1 hour) is “looks weak”.

Source of the values: US9278947B2, “Serotonin reuptake inhibitors as drugs having peripheral-system-restricted activity” (priority 2006, dated 2016).
